Experimental data taken from ChEMBL document CHEMBL4007397, “Discovery of First-in-Class, Potent, and Orally Bioavailable Embryonic Ectoderm Development (EED) Inhibitor with Robust Anticancer Efficacy” (J Med Chem, 2017).
Values after ≈ are worked out from the molar mass of the structure shown. One block for each molecule: values may come before it. Active and inactive are the calls of the source. The calls are words filed in the database; no cut-off is given here.

Key:
Polycomb protein EED [1] = biological target: T1, Polycomb protein EED (Homo sapiens, UniProt O75530)
Description: Inhibition of recombinant N-terminal GST-tagged EED (76 to 441 residues) (unknown origin) expressed in Escherichia coli BL21-CodonPlus(DE3)-RIL assessed as reduction in SAH production using H3[21-44,K27Me0) peptide as substrate measured after 20 mins by LC/MS/MS method

Polycomb protein EED [2] = biological target: T1, Polycomb protein EED; experiment: Inhibition of EED in human G401 cells assessed as reduction in global H3K27me3 level after 48 hrs by ELISA; type: cell-based
Polycomb protein EED [3] = biological target: T1, Polycomb protein EED; experiment: Inhibition of recombinant N-terminal GST-tagged EED (76 to 441 residues) (unknown origin) expressed in Escherichia coli BL21-CodonPlus(DE3)-RIL incubated for 20 mins using EED-H3K27me3 peptide based AlphaScreen competition binding assay
KARPAS-422 [4] = experiment: Antiproliferative activity against human KARPAS422 cells harboring monoallelic Y641N EZH2 mutation assessed as reduction in cell viability measured every 3 to 4 days up to 14 days by Beckman Coulter-based method; type: functional
[5] = Hepatic extraction ratio in mouse liver microsomes; type: ADME, microsome; settings: read-out: ERH
[6] = Protein binding in mouse plasma assessed as unbound fraction; type: ADME, cell-free
Mus musculus [7] = experiment: Dose normalized AUC in CD-1 mouse at 1 mg/kg, iv by LC-MS/MS analysis; type: ADME, organism-based; settings: in vivo
Mus musculus [8] = experiment: Dose normalized AUC in CD-1 mouse at 2 mg/kg, po by LC-MS/MS analysis; type: ADME, organism-based; settings: in vivo
Mus musculus [9] = experiment: Dose normalized unbound AUC in CD-1 mouse at 2 mg/kg, po by LC-MS/MS analysis; type: ADME, organism-based; settings: in vivo
[10] = (§1) Oral bioavailability in CD-1 mouse at 2 mg/kg by LC-MS/MS analysis; type: ADME, organism-based; settings: CD-1, mouse, in vivo
Mus musculus [11] = experiment: as §1; type: ADME, organism-based; settings: mouse, in vivo
[12] = Permeability across apical to basolateral side of human Caco2 cells; type: ADME, cell-based; settings: Caco-2, read-out: permeability
[13] = Equilibrium solubility of the compound by high-throughput assay; type: physicochemical
[14] = Solubility of the crystalline form of compound at pH 7; type: physicochemical
[15] = Solubility of the crystalline form of compound at pH 3; type: physicochemical
[16] = Solubility of the crystalline form of compound in simulated gastric fluid; type: physicochemical
[17] = Solubility of the crystalline form of compound in fasted state simulated intestinal fluid; type: physicochemical
[18] = Protein binding in Sprague-Dawley rat plasma assessed as unbound fraction; type: ADME, cell-free
[19] = Plasma protein binding in Beagle dog assessed as unbound fraction; type: ADME, cell-free, Canis lupus familiaris
[20] = Protein binding in human plasma assessed as unbound fraction; type: ADME, cell-free
Rattus norvegicus = experiment: Dose normalized unbound AUC in Sprague-Dawley rat at 2 mg/kg, po by LC-MS/MS analysis; type: ADME, organism-based; settings: in vivo
Canis familiaris = experiment: Dose normalized unbound AUC in Beagle dog at 2 mg/kg, po by LC-MS/MS analysis; type: ADME, organism-based, Canis lupus familiaris; settings: in vivo
[21] = Total clearance in Sprague-Dawley rat at 1 mg/kg, iv or 2 mg/kg, po by LC-MS/MS analysis; type: ADME, organism-based; settings: in vivo
[22] = Total clearance in Beagle dog at 1 mg/kg, iv or 2 mg/kg, po by LC-MS/MS analysis; type: ADME, organism-based, Canis lupus familiaris; settings: in vivo
[23] = Oral bioavailability in Sprague-Dawley rat at 2 mg/kg by LC-MS/MS analysis; type: ADME, organism-based; settings: in vivo
[24] = Oral bioavailability in Beagle dog at 2 mg/kg by LC-MS/MS analysis; type: ADME, organism-based, Canis lupus familiaris; settings: in vivo
Mus musculus [25] = experiment: Toxicity in CD-1 mouse assessed as effect on body weight at 300 mg/kg, po BID after 14 day; type: organism-based; settings: in vivo, 336 h
KARPAS-422 [26] = experiment: Antitumor activity against human KARPAS422 cells xenografted in Balb/C nude mouse assessed as tumor regression at 300 mg/kg, po BID for 34 days; type: functional, organism-based
Mus musculus [27] = experiment: Antitumor activity against human KARPAS422 cells xenografted in Balb/C nude mouse assessed as reduction in tumor volume at 1.5 to 40 mg/kg, po BID for 2 weeks; type: functional, organism-based
Mus musculus [28] = experiment: In-vivo inhibition of EED in Balb/C nude mouse xenografted with human KARPAS422 cells assessed as decrease in global H3K27me3 level at 1.5 to 40 mg/kg, po BID for 21 days; type: functional, organism-based
in vivo [29] = settings: CD-1, mouse, plasma, iv, 1 mg/kg
in vivo [30] = settings: CD-1, mouse, iv, 1 mg/kg
Description: Volume of distribution at steady state in CD-1 mouse at 1 mg/kg, iv or 2 mg/kg, po by LC-MS/MS analysis

in vivo [31] = settings: CD-1, mouse

T1 sequence (O75530 whole entry): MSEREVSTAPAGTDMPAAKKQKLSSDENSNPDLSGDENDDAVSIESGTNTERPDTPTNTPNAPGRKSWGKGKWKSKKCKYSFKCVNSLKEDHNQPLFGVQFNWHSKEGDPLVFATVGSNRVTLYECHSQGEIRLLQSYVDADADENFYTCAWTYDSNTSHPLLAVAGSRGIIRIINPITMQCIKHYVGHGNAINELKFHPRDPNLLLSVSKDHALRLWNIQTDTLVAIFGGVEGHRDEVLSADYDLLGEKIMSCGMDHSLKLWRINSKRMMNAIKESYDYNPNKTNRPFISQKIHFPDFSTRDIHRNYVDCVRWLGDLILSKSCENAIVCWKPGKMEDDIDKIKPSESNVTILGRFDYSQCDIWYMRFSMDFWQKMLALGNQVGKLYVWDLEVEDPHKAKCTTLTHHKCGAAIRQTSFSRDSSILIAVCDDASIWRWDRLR

Structure (SMILES): c1coc(CNc2ncc(-c3ccc(CN4CCCC4)cc3)c3nncn23)c1
IC50 (Polycomb protein EED [1]): 7 nM
IC50 (Polycomb protein EED [2]): 32 nM
IC50 (KARPAS-422 [4]): 88 nM
hepatic extraction ratio [5]: 0.52
fraction unbound [6]: 0.381
AUC/dose (Mus musculus [7]): 765 nM·h
AUC/dose (Mus musculus [8]): 531 nM·h
fAUC/dose (Mus musculus [9]): 202 nM·h
bioavailability [10]: 71%

Structure (SMILES): CS(=O)(=O)c1ccc(-c2cnc(NCc3ccco3)n3cnnc23)cc1
IC50 (Polycomb protein EED [1]): 22 nM
IC50 (Polycomb protein EED [2]): 220 nM
IC50 (KARPAS-422 [4]): 80 nM
fraction unbound [6]: 0.144 to 0.15
AUC/dose (Mus musculus [7]): 534 nM·h
AUC/dose (Mus musculus [8]): 5648 nM·h
fAUC/dose (Mus musculus [9]): 813 nM·h
F (Mus musculus [11]): 109%
Papp A→B [12]: 3 ×10⁻⁶ cm/s
solubility thermodynamic [13]: 12 µM (≈ 4.43 µg/mL)
solubility [14]: 25 µg/mL (≈ 67.7 µM)
solubility [15]: 26 µg/mL (≈ 70.4 µM)
solubility [16]: 55 µg/mL (≈ 149 µM)
solubility thermodynamic [17]: 35 µg/mL (≈ 94.7 µM)
fraction unbound [18]: 0.08
fraction unbound [19]: 0.24
fraction unbound [20]: 0.13
fAUC/dose (Rattus norvegicus): 1871 nM·h
fAUC/dose (Canis familiaris): 1907 nM·h
clearance [21]: 14 mL/min/kg
clearance [22]: 16 mL/min/kg
bioavailability [23]: 60%
bioavailability [24]: 68%
Activity (Mus musculus [25]): Non-Toxic
Activity (KARPAS-422 [26]): Active
Activity (Mus musculus [27]): Active
Activity (Mus musculus [28]): Dose-dependent effect
clearance (in vivo [29]): 8 mL/min/kg
Vd (in vivo [30]): 0.8 L/kg
half-life (in vivo [31]): 132 min

Structure (SMILES): CN(C)Cc1ccc(-c2cnc(NCc3cnco3)n3cnnc23)cc1
IC50 (Polycomb protein EED [1]): 290 nM

Structure (SMILES): CN(C)Cc1ccc(-c2cnc(NCc3ccccc3)n3cnnc23)cc1
IC50 (Polycomb protein EED [1]): 49 nM

Structure (SMILES): CN(C)Cc1ccc(-c2cnc(NCc3ccco3)n3cnnc23)cc1
IC50 (Polycomb protein EED [1]): 13 nM

Structure (SMILES): Cc1ccsc1CNc1ncc(-c2ccc(CN(C)C)cc2)c2nncn12
IC50 (Polycomb protein EED [1]): 49 nM

Structure (SMILES): Cc1ccsc1CNc1c(C#N)cc(-c2ccc(CN(C)C)cc2)c2nncn12
IC50 (Polycomb protein EED [1]): 21800 nM

Structure (SMILES): CCN(c1cc(-c2ccc(CN3CCOCC3)cc2)cc(C(=O)NCc2c(C)cc(C)[nH]c2=O)c1C)C1CCOCC1 [TAZEMETOSTAT]
IC50 (KARPAS-422 [4]): 12 nM
fraction unbound [6]: 0.014
AUC/dose (Mus musculus [7]): 1303 nM·h
AUC/dose (Mus musculus [8]): 254 nM·h
fAUC/dose (Mus musculus [9]): 4 nM·h
bioavailability [10]: 20%
clearance (in vivo [29]): 22 mL/min/kg
Vd (in vivo [30]): 1.2 L/kg
half-life (in vivo [31]): 96 min

Structure (SMILES): CN(C)Cc1ccc(-c2cc(C#N)c(NCc3ccccc3)n3cnnc23)cc1
IC50 (Polycomb protein EED [1]): 21800 nM

Structure (SMILES): N#Cc1c2c(c3nncn3c1Cl)CN(Cc1ccccc1)CC2
IC50 (Polycomb protein EED [1]): > 100000 nM

Structure (SMILES): c1ccc(-c2ccc(NCc3ccco3)n3cncc23)cc1
IC50 (Polycomb protein EED [1]): 14800 nM

Structure (SMILES): c1ccc(-c2cnc(NCc3ccco3)n3cnnc23)cc1
IC50 (Polycomb protein EED [1]): 52 nM

Structure (SMILES): CN(C)Cc1ccc(-c2cc(C#N)c(NCc3ccc(F)s3)n3cnnc23)cc1
IC50 (Polycomb protein EED [1]): 510 nM

Structure (SMILES): CN(C)Cc1ccc(-c2cc(C#N)c(NCc3ccco3)n3cnnc23)cc1
IC50 (Polycomb protein EED [1]): 9 to 13 nM

Structure (SMILES): CN(C)Cc1ccc(-c2cnc(NCc3ccon3)n3cnnc23)cc1
IC50 (Polycomb protein EED [1]): 770 nM

Structure (SMILES): CN(C)Cc1ccc(-c2cnc(NCc3cccs3)n3cnnc23)cc1
IC50 (Polycomb protein EED [1]): 93 nM

Structure (SMILES): CN(C)Cc1ccc(-c2cnc(NCc3sccc3Cl)n3cnnc23)cc1
IC50 (Polycomb protein EED [1]): 53 nM

Structure (SMILES): Cc1ccc(CNc2c(C#N)cc(-c3ccc(CN(C)C)cc3)c3nncn23)s1
IC50 (Polycomb protein EED [1]): 2220 nM

Structure (SMILES): N#Cc1cc(-c2ccccc2)c2nncn2c1NCc1ccco1
IC50 (Polycomb protein EED [1]): 62 nM

Structure (SMILES): CN(C)Cc1ccc(-c2cnc(NCc3ccoc3)n3cnnc23)cc1
IC50 (Polycomb protein EED [1]): 19 nM

Structure (SMILES): CN(C)Cc1ccc(-c2cc(C#N)c(NCc3cnco3)n3cnnc23)cc1
IC50 (Polycomb protein EED [1]): 150 nM

Structure (SMILES): N#Cc1cc(-c2ccccc2F)c2nncn2c1NCc1ccco1
IC50 (Polycomb protein EED [1]): 30 nM
IC50 (Polycomb protein EED [2]): 210 nM
IC50 (KARPAS-422 [4]): 76 nM
hepatic extraction ratio [5]: 0.8
fraction unbound [6]: 0.0281
AUC/dose (Mus musculus [7]): 1751 nM·h
AUC/dose (Mus musculus [8]): 714 nM·h
fAUC/dose (Mus musculus [9]): 20.1 nM·h
bioavailability [10]: 42%

Structure (SMILES): CN(C)Cc1ccc(-c2cc(C#N)c(NCc3ccon3)n3cnnc23)cc1
IC50 (Polycomb protein EED [1]): 69 nM

Other lines, results leading:

IC50 (Polycomb protein EED [1]): 4030 nM
IC50 (Polycomb protein EED [2]): 3280 nM
IC50 (Polycomb protein EED [3]): 620 nM
Structure (SMILES): N#Cc1c2c(c3nncn3c1NCc1ccco1)CN(Cc1ccccc1)CC2

IC50 (Polycomb protein EED [1]): 1000 nM
Structure (SMILES): N#Cc1ccc2nncn2c1NCc1ccco1

IC50 (Polycomb protein EED [1]): 9 nM
Structure (SMILES): CN(C)Cc1ccc(-c2cc(C#N)c(NCc3ccoc3)n3cnnc23)cc1

IC50 (Polycomb protein EED [1]): 150 nM
Structure (SMILES): CN(C)Cc1ccc(-c2cnc(NCc3ccc(F)s3)n3cnnc23)cc1

IC50 (Polycomb protein EED [1]): 94 nM
Structure (SMILES): COc1ccccc1CNc1ncc(-c2ccc(CN(C)C)cc2)c2nncn12

IC50 (Polycomb protein EED [1]): 69 nM
Structure (SMILES): CN(C)Cc1ccc(-c2cc(C#N)c(NCc3ccno3)n3cnnc23)cc1

IC50 (Polycomb protein EED [1]): 20 nM
Structure (SMILES): CN(C)Cc1ccc(-c2cc(C#N)c(NCc3cccs3)n3cnnc23)cc1

IC50 (Polycomb protein EED [1]): 14900 nM
Structure (SMILES): COc1ccccc1CNc1c(C#N)cc(-c2ccc(CN(C)C)cc2)c2nncn12

IC50 (Polycomb protein EED [1]): 130 nM
Structure (SMILES): CN(C)Cc1ccc(-c2cnc(NCc3ccno3)n3cnnc23)cc1

IC50 (Polycomb protein EED [1]): 12400 nM
Structure (SMILES): Cc1ccc(CNc2ncc(-c3ccc(CN(C)C)cc3)c3nncn23)s1

IC50 (Polycomb protein EED [1]): 2340 nM
Structure (SMILES): CN(C)Cc1ccc(-c2cc(C#N)c(NCc3sccc3Cl)n3cnnc23)cc1
